Reference: US20100254928A1, “NOVEL COMPOSITION CONTAINING OZONIZED SURFACTANT” (priority 2007, published 2010)

Experiments:
Assay in all cases: Bactericidal activity test with variation of the period of action
Type in all cases: cell-based
Staphylococcus aureus = tested on: Staphylococcus aureus
Procedure: (§1) In order to check the bactericidal activity of the ozonized surfactant, a bactericidal activity test was performed with variation of the period of action.
(§2) Developed colonies were scraped off and a bacterial solution of about 10^8 CFU/mL was prepared.
(§3) Into 50 mL centrifuging tubes, 10 mL each of 0.5% and 0.05% aqueous solutions of the ozonized surfactant obtained in Example 4 were separately poured. To each solution, 0.1 mL of sample bacterial solution was inoculated and mixed for a predetermined period of action at room temperature. To 10 mL of SCDLP bouillon medium (EIKEN CHEMICAL) of which the effectiveness as an inactivator had been confirmed beforehand, 0.1 mL of the resulting solution after a predetermined period of action was added for inactivation of bactericidal components. Then the bacteria count was measured. As a control test, the same operation was performed with the use of an unozonized surfactant or sterile purified water. A 10-fold serial dilution of each sample solution after inactivation was prepared. Each 1 mL of the undiluted and diluted sample solutions were separately mixed with about 20 mL of agar medium, and then cultured. After culturing, the number of colony forming units per 1 mL of each sample solution was counted.

Pseudomonas aeruginosa = tested on: Pseudomonas aeruginosa
Procedure: as §1, §2, §3

Escherichia coli = tested on: Escherichia coli
Procedure: as §1, §2, §3

[1] = Conc. 0.05%, period of action 10 min
[2] = Conc. 0.05%, period of action 30 min
[3] = Conc. 0.5%, period of action 5 min
[4] = Conc. 0.5%, period of action 10 min
[5] = Conc. 0.5%, period of action 30 min

With “Ozonized POE (10 EO) oleyl ether [Example 4]” the bacteria count (Staphylococcus aureus; Conc. 0.05%, period of action 5 min, 0 min 8.2 × 10^6) was <1 × 10^2 CFU/mL, the bacteria count (Staphylococcus aureus; [1]) was 1 × 10^2 CFU/mL and the bacteria count (Staphylococcus aureus; [2]) was <1 × 10^2 CFU/mL. The bacteria count (Staphylococcus aureus; [3]) was <1 × 10^2 CFU/mL, the bacteria count (Staphylococcus aureus; [4]) was <1 × 10^2 CFU/mL and the bacteria count (Staphylococcus aureus; [5]) was <1 × 10^2 CFU/mL. For the same substance, the bacteria count (Pseudomonas aeruginosa; Conc. 0.05%, period of action 5 min, 0 min 4.5 × 10^6) was 1.5 × 10^2 CFU/mL, the bacteria count (Pseudomonas aeruginosa; [1]) was <1 × 10^2 CFU/mL and the bacteria count (Pseudomonas aeruginosa; [2]) was <1 × 10^2 CFU/mL. For the same substance, the bacteria count (Pseudomonas aeruginosa; [3]) was <1 × 10^2 CFU/mL, the bacteria count (Pseudomonas aeruginosa; [4]) was <1 × 10^2 CFU/mL and the bacteria count (Pseudomonas aeruginosa; [5]) was <1 × 10^2 CFU/mL. The bacteria count (Escherichia coli; Conc. 0.05%, period of action 5 min, 0 min 3.8 × 10^6) was 4.8 × 10^6 CFU/mL, the bacteria count (Escherichia coli; [1]) was <1 × 10^2 CFU/mL and the bacteria count (Escherichia coli; [2]) was <1 × 10^2 CFU/mL. For the same substance, the bacteria count (Escherichia coli; [3]) was <1 × 10^2 CFU/mL, the bacteria count (Escherichia coli; [4]) was <1 × 10^2 CFU/mL and the bacteria count (Escherichia coli; [5]) was <1 × 10^2 CFU/mL.
